Measurements taken from US10576096B2, “Tumor-selective combination therapy” (priority 2013, dated 2020).
Converted amounts (≈) assume the structure as drawn.

Assays:
[1] = Aqueous solubility in PBS pH 7.4 by LC-MS; assay type: physicochemical; settings: pH 7.4 PBS, 30 min sonication, filtered
Protocol: The aqueous solubility of DNQ at pH 7.4 in phosphate buffered saline (PBS) was measured by LC-MS. DNQ was sonicated for 30 minutes in PBS then undissolved solid was removed by filtration through a 0.45 μm syringe filter and the filtrate was analyzed by LC-MS (λ=275 nm, ESI-TOF in negative mode). The optimal sonication time was determined by sonicating DNQ for 1, 5, 10, and 30 minutes. While the concentration of DNQ in solution increased substantially between 1, 5, and 10 minutes, there was only a minor difference between 10 and 30 minutes. During the 30 minute sonication the water bath warmed to 45° C. (samples were cooled to room temperature before filtration). A calibration curve was generated from 1-100 μM by dissolving DNQ in methanol to a concentration of 500 μM and making dilutions of this stock in 80:20 water:methanol. The calibration curve (measure by UV absorbance) was linear over this range; 1 μM was approximately the limit of detection. […] The solution was very pale yellow.

[2] = Formulation of DNQ compounds in HPβCD (solubility, solution stability); assay type: physicochemical
Source text: This same neutral solution of DNQ in HPβCD cannot be made directly (i.e. without pH adjustment). […] The only proton on DNQ that might reasonably be deprotonated in aqueous base is the N—H. Although the acidity of the N—H bond of DNQ has not been measured, it has been measured for a derivative of DNQ and found to have a pKa of 8.0.
The protocol for formulating DNQ compounds in HPβCD is as follows: the DNQ compound is slurried in a 20% solution of HPβCD in pH 7.4 PBS and the pH is then increased by the addition of 10 M NaOH to induce dissolution of the DNQ compound. The pH is returned to pH 7.5-8.0 by the careful addition of 1 M HCl. A 3.3 mM solution of the DNQ compound can be made by this method which is stable at least 24 hours. This represents a 30-fold increase in solubility of DNQ over PBS alone. We initially chose a 20% HPβCD solution.

[3] = system: NOD/SCID mice injected with 3LL-Luc cells; settings: mouse, in vivo, iv
[4] = system: NOD/SCID mice injected with 3LL-Luc cells; assay: DNQ derivatives pilot study of maximum tolerated dose (MTD); settings: 7.5 mg/kg, 3 NOD/SCID mice

Q: With Cc1cc(=O)[nH]c2c1C(=O)c1c(C)cc(=O)n(C)c1C2=O [DNQ, Deoxynyboquinone] as the compound, how does the “solubility in PBS” value [1] read?
A: Its value is 115 µM (≈ 32.7 µg/mL).

Q: And the “stability of HPβCD solution” value ([2]; 3.3 mM in 20% HPβCD)?
A: Its value is “at least 24 hours”.

Q: And the “increase in solubility over PBS alone” value ([2]; 20% HPβCD)?
A: The value was 30 fold.

Q: What about the “concentration of solution in HPβCD” value ([2]; 20% HPβCD in pH 7.4 PBS, pH raised with NaOH then returned to 7.5-8.0) of the same compound?
A: The value was 3300 µM.

Q: And the “concentration of solution in HPβCD” value ([2]; 40% HPβCD, extrapolated from linear increase with HPβCD)?
A: Its value is 6600 µM.

Q: And the MTD [3]?
A: The MTD was 6.

Q: What about the “Dead mice (5 IV.)” value [4] of the same compound?
A: Its value is 2.
